Laboratory results taken from ChEMBL document CHEMBL4330178 (ACS Med Chem Lett, 2019).

What was measured:
[1] = target: von Hippel-Lindau disease tumor suppressor/Mitogen-activated protein kinase 14 (Homo sapiens, UniProt P40337+Q16539); test: Protac activity at E3 ubiquitin ligase/p38alpha in human MDA-MB-231 cells assessed as p38alpha degradation after 4 hrs by ELISA; type: cell-based
[2] = target: von Hippel-Lindau disease tumor suppressor/Mitogen-activated protein kinase 14 (Homo sapiens) (UniProt Q16539+P40337); test: Protac activity at E3 ubiquitin ligase/p38alpha in human MDA-MB-231 cells assessed as p38alpha degradation after 4 hrs by ELISA relative to control; type: cell-based
Chain of von Hippel-Lindau disease tumor suppressor/Mitogen-activated protein kinase 14 (Homo sapiens) (P40337 whole entry partner): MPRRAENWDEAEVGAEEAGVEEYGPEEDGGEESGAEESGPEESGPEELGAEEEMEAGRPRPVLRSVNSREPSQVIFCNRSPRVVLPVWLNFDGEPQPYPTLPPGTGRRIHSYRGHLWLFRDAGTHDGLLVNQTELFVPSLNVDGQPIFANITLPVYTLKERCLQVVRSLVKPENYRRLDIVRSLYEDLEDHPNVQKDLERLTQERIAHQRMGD
Chain of von Hippel-Lindau disease tumor suppressor/Mitogen-activated protein kinase 14 (Homo sapiens) (Q16539 2-360 limits assumed): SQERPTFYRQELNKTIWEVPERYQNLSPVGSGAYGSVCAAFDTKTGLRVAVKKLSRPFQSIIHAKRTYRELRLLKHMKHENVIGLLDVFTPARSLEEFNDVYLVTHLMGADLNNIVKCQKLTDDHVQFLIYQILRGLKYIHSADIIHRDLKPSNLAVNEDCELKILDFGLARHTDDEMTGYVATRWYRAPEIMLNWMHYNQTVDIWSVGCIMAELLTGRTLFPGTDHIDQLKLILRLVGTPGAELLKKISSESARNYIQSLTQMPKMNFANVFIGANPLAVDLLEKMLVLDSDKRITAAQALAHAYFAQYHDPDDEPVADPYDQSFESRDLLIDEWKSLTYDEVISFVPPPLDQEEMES

Chain of von Hippel-Lindau disease tumor suppressor/Mitogen-activated protein kinase 14 (Q16539 whole entry): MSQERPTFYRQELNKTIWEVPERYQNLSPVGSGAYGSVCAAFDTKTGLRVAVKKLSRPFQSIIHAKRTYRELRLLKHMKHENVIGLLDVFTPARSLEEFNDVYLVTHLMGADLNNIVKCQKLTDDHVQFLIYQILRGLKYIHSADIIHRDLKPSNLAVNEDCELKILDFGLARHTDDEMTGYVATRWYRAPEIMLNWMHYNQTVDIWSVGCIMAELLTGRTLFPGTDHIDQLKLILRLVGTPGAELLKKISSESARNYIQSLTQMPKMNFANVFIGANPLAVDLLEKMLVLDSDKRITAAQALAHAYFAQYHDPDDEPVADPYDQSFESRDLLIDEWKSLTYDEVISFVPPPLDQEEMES
Chain of von Hippel-Lindau disease tumor suppressor/Mitogen-activated protein kinase 14 (P40337 whole entry): as the sequence (P40337 whole entry partner) above

IC50 [1] | Emax [2] | Compound
40.1 nM | 81% | COc1cc2c(Oc3ccc(NC(=O)C4(C(=O)Nc5ccc(F)cc5)CC4)cc3F)ccnc2cc1OCCOCCOCCC(=O)N[C@H](C(=O)N1C[C@H](O)C[C@H]1C(=O)NCc1ccc(-c2scnc2C)cc1)C(C)(C)C
18.8 nM | 91% | COc1cc2c(Oc3ccc(NC(=O)C4(C(=O)Nc5ccc(F)cc5)CC4)cc3F)ccnc2cc1OCCCOCCOCCC(=O)N[C@H](C(=O)N1C[C@H](O)C[C@H]1C(=O)NCc1ccc(-c2scnc2C)cc1)C(C)(C)C
50 nM | 95% | COc1cc2c(Oc3ccc(NC(=O)C4(C(=O)Nc5ccc(F)cc5)CC4)cc3F)ccnc2cc1OCCCOCCCOCCC(=O)N[C@H](C(=O)N1C[C@H](O)C[C@H]1C(=O)NCc1ccc(-c2scnc2C)cc1)C(C)(C)C
